From patent US11680060B2, “Bicycloheptane pyrrolidine orexin receptor agonists” (Merck Sharp & Dohme LLC, priority 2020, dated 2023)
pIC50: −log10 of the molar value. Read-outs that look alike come from different tables or passages of the source.

Molecular target: human OX2R (Homo sapiens (Human), UniProt O43614)
Assay: IPOne (IP-1) assay in CHO cells expressing human OX2R
Assay type: cell-based
Settings: for Emax: CHO; for pIC50: CHO cells expressing human OX2R, IP-One detection, 2 hours incubation, EC50 = inflection point of four parameter logistic fit, read-out: hOX2R_IP_IC50
Method in brief: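 CHO cells stably expressing human OX2R were stimulated with compound (10-point ½-log dilutions) for 2 h at 37 °C. IP-1 accumulation was read by HTRF (IP-One, 665/620 nm). EC50 from a four-parameter fit; % effect relative to 1 μM reference agonist control.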

[1] = percentage of mean max effect of a reference compound at 1 uM (100% activity by comparison to Orexin A), human OX2R, read-out: Emax (%)

Chain of human OX2R (O43614 whole entry): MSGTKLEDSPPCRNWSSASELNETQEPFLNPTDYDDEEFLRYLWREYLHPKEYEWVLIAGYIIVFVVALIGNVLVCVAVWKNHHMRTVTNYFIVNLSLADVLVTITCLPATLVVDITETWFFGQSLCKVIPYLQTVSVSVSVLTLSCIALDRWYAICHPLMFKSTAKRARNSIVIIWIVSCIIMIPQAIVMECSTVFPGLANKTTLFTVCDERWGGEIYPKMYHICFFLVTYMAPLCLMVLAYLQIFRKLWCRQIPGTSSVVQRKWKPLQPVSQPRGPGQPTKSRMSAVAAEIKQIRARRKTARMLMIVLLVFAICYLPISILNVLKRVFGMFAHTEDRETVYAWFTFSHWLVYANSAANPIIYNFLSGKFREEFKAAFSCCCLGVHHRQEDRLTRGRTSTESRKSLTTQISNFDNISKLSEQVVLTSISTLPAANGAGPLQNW

Row | SMILES | Emax [1] | other results
1 | C[C@@H]1C[C@H](NS(C)(=O)=O)[C@H](CO[C@H]2CC[C@@]3(c4ncc(F)cn4)C[C@H]3C2)N1C(=O)OCC(F)(F)F [Example 65, 2,2,2-trifluoroethyl (2R,3S,5R)-2-((((1S,3S,6R)-6-(5-fluoropyrimidin-2-yl)bicyclo[4.1.0]heptan-3-yl)oxy)methyl)-5-methyl-3-(methylsulfonamido)pyrrolidine-1-carboxylate] | 102% | –
2 | C[C@@H]1C[C@H](NS(C)(=O)=O)[C@H](CO[C@H]2CC[C@@]3(c4ncc(F)cn4)C[C@H]3C2)N1C(=O)OCC(F)F [Example 66, 2,2-difluoroethyl (2R,3S,5R)-2-((((1S,3S,6R)-6-(5-fluoropyrimidin-2-yl)bicyclo[4.1.0]heptan-3-yl)oxy)methyl)-5-methyl-3-(methylsulfonamido)pyrrolidine-1-carboxylate] | 101% | –
3 | COC(=O)N1[C@H](C)C[C@H](NS(=O)(=O)C(F)F)[C@@H]1CO[C@H]1CC[C@@]2(c3ncccn3)C[C@H]2C1 [Example 68, methyl (2R,3S,5R)-3-((difluoromethyl)sulfonamido)-5-methyl-2-((((1S,3S,6R)-6-(pyrimidin-2-yl)bicyclo[4.1.0]heptan-3-yl)oxy)methyl)pyrrolidine-1-carboxylate] | 99.7% | –
4 | COC(=O)N1[C@H](C)C[C@H](NS(=O)(=O)C(F)F)[C@@H]1CO[C@@H]1CC[C@]2(c3ncccn3)C[C@@H]2C1 [Example 69, methyl (2R,3S,5R)-3-((difluoromethyl)sulfonamido)-5-methyl-2-((((1R,3R,6S)-6-(pyrimidin-2-yl)bicyclo[4.1.0]heptan-3-yl)oxy)methyl)pyrrolidine-1-carboxylate] | 101% | –
5 | COC(=O)N1[C@H](C)C[C@H](NS(C)(=O)=O)[C@@H]1COC1CCC2(c3ncc(Cl)c(OC)n3)CC2C1 (stereo partly drawn) [Example 70, methyl (2R,3S,5R)-2-(((6-(5-chloro-4-methoxypyrimidin-2-yl)bicyclo[4.1.0]heptan-3-yl)oxy)methyl)-5-methyl-3-(methylsulfonamido)pyrrolidine-1-carboxylate] | – | Emax: 101%; pIC50: 7.47
6 | COC(=O)N1[C@H](C)C[C@H](NS(C)(=O)=O)[C@@H]1COC1CCC2(c3nc4c(F)ccc(F)c4s3)CC2C1 (stereo partly drawn) [Example 71, methyl (2R,3S,5R)-2-(((6-(4,7-difluorobenzo[d]thiazol-2-yl)bicyclo[4.1.0]heptan-3-yl)oxy)methyl)-5-methyl-3-(methylsulfonamido)pyrrolidine-1-carboxylate] | 57.9% | –
7 | COC(=O)N1[C@H](C)C[C@H](NS(C)(=O)=O)[C@@H]1COC1CCC2(c3ncc(Cl)c(C(F)(F)F)n3)CC2C1 (stereo partly drawn) [Example 72, methyl (2R,3S,5R)-2-(((6-(5-chloro-4-(trifluoromethyl)pyrimidin-2-yl)bicyclo[4.1.0]heptan-3-yl)oxy)methyl)-5-methyl-3-(methylsulfonamido)pyrrolidine-1-carboxylate] | 91.7% | –
8 | COC(=O)N1[C@H](C)C[C@H](NS(C)(=O)=O)[C@@H]1COC1CCC2(c3ncc(F)c(C(F)F)n3)CC2C1 (stereo partly drawn) [Example 73, methyl (2R,3S,5R)-2-(((6-(4-(difluoromethyl)-5-fluoropyrimidin-2-yl)bicyclo[4.1.0]heptan-3-yl)oxy)methyl)-5-methyl-3-(methylsulfonamido)pyrrolidine-1-carboxylate] | 90.7% | –
9 | COC(=O)N1[C@H](C)C[C@H](NS(C)(=O)=O)[C@@H]1COC1CCC2(c3ncc(F)c(C4CC4)n3)CC2C1 (stereo partly drawn) [Example 74, methyl (2R,3S,5R)-2-(((6-(4-cyclopropyl-5-fluoropyrimidin-2-yl)bicyclo[4.1.0]heptan-3-yl)oxy)methyl)-5-methyl-3-(methylsulfonamido)pyrrolidine-1-carboxylate] | 84% | –
10 | COC(=O)N1[C@H](C)C[C@H](NS(C)(=O)=O)[C@@H]1COC1CCC2(c3ncc(OC(F)F)c(C)n3)CC2C1 (stereo partly drawn) [Example 75, methyl (2R,3S,5R)-2-(((6-(5-(difluoromethoxy)-4-methylpyrimidin-2-yl)bicyclo[4.1.0]heptan-3-yl)oxy)methyl)-5-methyl-3-(methylsulfonamido)pyrrolidine-1-carboxylate] | 89.5% | –
11 | COC(=O)N1[C@H](C)C[C@H](NS(C)(=O)=O)[C@@H]1COC1CCC2(c3ncc(F)c(OC)n3)CC2C1 (stereo partly drawn) [Example 76, methyl (2R,3S,5R)-2-(((6-(5-fluoro-4-methoxypyrimidin-2-yl)bicyclo[4.1.0]heptan-3-yl)oxy)methyl)-5-methyl-3-(methylsulfonamido)pyrrolidine-1-carboxylate] | 101% | –
12 | COC(=O)N1[C@H](C)C[C@H](NS(C)(=O)=O)[C@@H]1COC1CCC2(c3ncc(F)c(C)n3)CC2C1 (stereo partly drawn) [Example 77, methyl (2R,3S,5R)-2-(((6-(5-fluoro-4-methylpyrimidin-2-yl)bicyclo[4.1.0]heptan-3-yl)oxy)methyl)-5-methyl-3-(methylsulfonamido)pyrrolidine-1-carboxylate] | 74.5% | –
13 | COC(=O)N1[C@H](C)C[C@H](NS(=O)(=O)C(F)F)[C@@H]1CO[C@H]1CC[C@@]2(c3ncc(Cl)cn3)C[C@H]2C1 [Example 78, methyl (2R,3S,5R)-2-((((1S,3S,6R)-6-(5-chloropyrimidin-2-yl)bicyclo[4.1.0]heptan-3-yl)oxy)methyl)-3-((difluoromethyl)sulfonamido)-5-methylpyrrolidine-1-carboxylate] | 101% | –
14 | COC(=O)N1[C@H](C)C[C@H](NS(=O)(=O)CF)[C@@H]1CO[C@H]1CC[C@@]2(c3ncc(Cl)cn3)C[C@H]2C1 [Example 79, methyl (2R,3S,5R)-2-((((1S,3S,6R)-6-(5-chloropyrimidin-2-yl)bicyclo[4.1.0]heptan-3-yl)oxy)methyl)-3-((fluoromethyl)sulfonamido)-5-methylpyrrolidine-1-carboxylate] | 103% | pIC50: 9.07
15 | CC(C)OC(=O)N1[C@H](C)C[C@H](NS(=O)(=O)C(F)F)[C@@H]1COC1CCC2(c3ncc(Cl)cn3)CC2C1 (stereo partly drawn) [Example 82, isopropyl (2R,3S,5R)-2-(((6-(5-chloropyrimidin-2-yl)bicyclo[4.1.0]heptan-3-yl)oxy)methyl)-3-((difluoromethyl)sulfonamido)-5-methylpyrrolidine-1-carboxylate] | 102% | –
16 | COC(=O)N1[C@H](C)C[C@H](NS(=O)(=O)CF)[C@@H]1CO[C@H]1CC[C@@]2(c3ncc(F)c(OC)n3)C[C@H]2C1 [Example 83, methyl (2R,3S,5R)-2-((((1S,3S,6R)-6-(5-fluoro-4-methoxypyrimidin-2-yl)bicyclo[4.1.0]heptan-3-yl)oxy)methyl)-3-((fluoromethyl)sulfonamido)-5-methylpyrrolidine-1-carboxylate] | 100% | pIC50: 8.12
17 | COC(=O)N1[C@H](C)C[C@H](NS(=O)(=O)CF)[C@@H]1COC1CCC2(c3ncc(F)c(OC)n3)CC2C1 (stereo partly drawn) [Example 85, methyl (2R,3S,5R)-2-(((6-(5-fluoro-4-methoxypyrimidin-2-yl)bicyclo[4.1.0]heptan-3-yl)oxy)methyl)-3-((fluoromethyl)sulfonamido)-5-methylpyrrolidine-1-carboxylate] | 97.1% | –
18 | COC(=O)N1[C@H](C)C[C@H](NS(=O)(=O)CF)[C@@H]1COC1CCC2(c3ncc(Cl)c(OC)n3)CC2C1 (stereo partly drawn) [Example 86, methyl (2R,3S,5R)-2-(((6-(5-chloro-4-methoxypyrimidin-2-yl)bicyclo[4.1.0]heptan-3-yl)oxy)methyl)-3-((fluoromethyl)sulfonamido)-5-methylpyrrolidine-1-carboxylate] | 101% | –
19 | COC(=O)N1[C@H](C)C[C@H](NS(=O)(=O)CF)[C@@H]1COC1CCC2(c3ncc(Br)cn3)CC2C1 (stereo partly drawn) [Example 89, methyl (2R,3S,5R)-2-(((6-(5-bromopyrimidin-2-yl)bicyclo[4.1.0]heptan-3-yl)oxy)methyl)-3-((fluoromethyl)sulfonamido)-5-methylpyrrolidine-1-carboxylate] | 104% | –
20 | COC(=O)N1[C@H](C)C[C@H](NS(=O)(=O)CF)[C@@H]1COC1CCC2(c3ncc(Cl)cn3)CC2C1 (stereo partly drawn) [Example 94, methyl (2R,3S,5R)-2-(((6-(5-chloropyrimidin-2-yl)bicyclo[4.1.0]heptan-3-yl)oxy)methyl)-3-((fluoromethyl)sulfonamido)-5-methylpyrrolidine-1-carboxylate] | 102% | –
21 | CC(C)OC(=O)N1[C@H](C)C[C@H](NS(=O)(=O)CF)[C@@H]1COC1CCC2(c3ncc(Cl)cn3)CC2C1 (stereo partly drawn) [Example 107, isopropyl (2R,3S,5R)-2-(((6-(5-chloropyrimidin-2-yl)bicyclo[4.1.0]heptan-3-yl)oxy)methyl)-3-((fluoromethyl)sulfonamido)-5-methylpyrrolidine-1-carboxylate] | 104% | –
22 | CC(C)OC(=O)N1[C@H](C)C[C@H](NS(=O)(=O)CF)[C@@H]1COC1CCC2(c3ncc(Br)cn3)CC2C1 (stereo partly drawn) [Example 108, isopropyl (2R,3S,5R)-2-(((6-(5-bromopyrimidin-2-yl)bicyclo[4.1.0]heptan-3-yl)oxy)methyl)-3-((fluoromethyl)sulfonamido)-5-methylpyrrolidine-1-carboxylate] | 105% | –
23 | CC(C)OC(=O)N1[C@H](C)C[C@H](NS(=O)(=O)C(F)F)[C@@H]1COC1CCC2(c3ncc(F)cn3)CC2C1 (stereo partly drawn) [Example 109, isopropyl (2R,3S,5R)-3-((difluoromethyl)sulfonamido)-2-(((6-(5-fluoropyrimidin-2-yl)bicyclo[4.1.0]heptan-3-yl)oxy)methyl)-5-methylpyrrolidine-1-carboxylate] | 105% | –
24 | CC(C)OC(=O)N1[C@H](C)C[C@H](NS(=O)(=O)C(F)F)[C@@H]1COC1CC[C@]2(c3ncc(F)cn3)CC2C1 (stereo partly drawn) [Example 110] | – | Emax (%) (percentage of mean max effect of a reference compound at 1 uM (100% activity by comparison to Orexin A), human OX2R): 100.9%
